According to US6274636A (priority 1999, dated 2001):

What was measured:
[1] = human clinical trials, safety profile; type: in vivo
[2] = detection of radiolabelled compound in saliva; type: in vivo
[3] = tested on: clinical subjects; assay: clinical observation, pupil response; type: in vivo, human
[4] = tested on: muscarinic receptor subtype; assay: in vivo animal and clinical observations, muscarinic receptor subtype profile
[5] = tested on: rats; assay: in vivo animal observation, overdose in rats; settings: rats exposed to an overdose
[6] = tested on: muscarinic cholinergic receptor; assay: pharmacological studies, muscarinic cholinergic receptor activity
[7] = known; cited from earlier work
[8] = tested on: 5-HT1C receptor; assay: activity at the 5-HT1C receptor; settings: anhydrous Form II

Cc1cc2c(s1)Nc1ccccc1N=C2N1CCN(C)CC1 [2-methyl-4-(4-methyl-1-piperazinyl)-10H-thieno[2,3-b][1,5]benzodiazepine]
safety profile [1]: favorable safety profile
detection in the saliva [2]: can be detected in the saliva
pupilary response [3]: pupilary constriction rather than the expected pupilary dilation
muscarinic receptor subtype profile [4]: complex muscarinic receptor subtype profile
salivation [5]: significant salivation
muscarinic cholinergic receptor activity [6]: has muscarinic cholinergic receptor activity
induction of extrapyramidal symptoms [7]: less likely to induce extrapyramidal symptoms

Cc1cc2c(s1)Nc1ccccc1N=C2N1CCN(C)CC1 [anhydrous Form II, 2-methyl-4-(4-methyl-1-piperazinyl)-10H-thieno[2,3-b][1,5]benzodiazepine]
activity at the 5-HT1C receptor [8]: active
